From patent publication US20170355959A1, “METHODS FOR MOBILISING POPULATIONS OF STEM CELLS” (Imperial Innovations Limited, priority 2014, published 2017)
Like-named read-outs stand apart in the source and are kept apart here.

Assays:
HSPCs [1] = test: Mobilization of HSPCs into peripheral blood (CFU-HPC assay); type: in vivo, mice; settings: for effect on HSPC mobilization induced by 4 day beta 3 adrenergic agonist and CXCR4 antagonist: inhibitor or antagonist given 60 minutes prior to BRL 37344, once daily for 4 days; for level of HSPC mobilization: 3 day pre-treatment with one agonist alone, beta 3 agonist and CXCR4 antagonist on day 4; for priming of HSPCs for mobilization: 4 day pre-treatment, CB1 and CB2 agonists in combination, even with FAAH inhibitor
Experimental: (§1) Mice were administered the β-adrenergic agonists isoproterenol (10 mg/kg i.p.), clenbuterol (5 mg/kg i.p.) and BRL 37344 (10 mg/kg i.p.), the cannabinoid receptor agonists ACEA (10 mg/kg i.p.) and GP1a (5 mg/kg i.p.), or vehicle either on 4 consecutive days or 2 hours prior to the cull. 1 hour after the last injection, mice were administered the CXCR4 antagonist AMD3100 (5 mg/kg i.p.) or vehicle. 1 hour later their blood was collected via cardiac puncture for enumeration of circulating CFU-HPCs and CFU-Fs. Mice were administered murine G-CSF (100 μg/kg i.p.) or vehicle on 4 consecutive days. On day 5, blood was collected via cardiac puncture for enumeration of circulating HSPCs.
(§2) Harvested peripheral blood or perfusate was red blood cell-lysed and 1×10^5 cells were added to tissue culture-treated petri dishes containing 1 ml of Methocult™ (M3434; StemCell Technologies) to select for CFU-HPCs. Cultures were incubated at 37° C. and quantified on day 12. Similarly, 1×10^6 bone marrow cells harvested by bone marrow flush of the hind limb femur were plated for CFU-HPCs.

HPCs = test: In situ perfusion of mouse hind limb, CFU-HPCs in perfusate; type: in vivo, mice
Experimental: (§3) Mice were administered BRL 37344 (10 mg/kg i.p.) or vehicle on 4 consecutive days. 1 hour after the last injection, the mice were anaesthetized. The femoral vein and artery were exposed and cannulated in situ immediately after the hind limb was isolated by occlusion of the surrounding arteries as previously described (Pitchford et al, 2009; Pitchford et al, 2010). Perfusion buffer was infused via the arterial cannula and removed from the venous cannula using a Minipuls Peristaltic Pump (Anachem). The hind limb was initially infused with AMD3100 (0.1 mM) or vehicle for 10 minutes using an infusion/withdrawal pump (Harvard Instruments) and was further perfused for 50 minutes with perfusion buffer (Pitchford et al, 2010). The perfusate was collected over 60 minutes and then centrifuged and resuspended in DMEM (Gibco) +20% fetal bovine serum for enumeration of CFU-HPCs and CFU-Fs.
as §2

CFU-Fs (MSCs) = test: In situ perfusion of mouse hind limb, CFU-Fs in perfusate; type: in vivo, mice
Experimental: as §3
Harvested peripheral blood or perfusate was red blood cell-lysed and 1×10^6 cells were added to tissue culture-treated 6-well plates containing 3 ml of Mesencult™ (05502; StemCell Technologies) to select for CFU-Fs. Similarly, 1×10^6 bone marrow cells harvested by bone marrow flush of the hind limb femur were plated for CFU-Fs. Cultures were incubated at 37° C. and media was changed on day 7. Bone marrow-derived CFU-Fs were enumerated on day 13 and blood- and perfusate-derived CFU-Fs were enumerated on day 21. Blood derived-CFU-Fs were further expanded and assessed for mesenchymal lineage markers by flow cytometry and following CD45 depletion (flow cytometry sorting of CD45 negative for mesenchymal trilineage differentiation (Supplemental Experimental Procedures).

MSCs = settings: G-CSF and/or the CXCR4 antagonist; cited from earlier work
HSPCs [2] = settings: humans; cited from earlier work
CFU-Fs (MSPCs) = test: Mobilization of MSPCs into peripheral blood (CFU-F assay); type: in vivo, mice; settings: for priming of MSCs for mobilization: 4 day pre-treatment, CB1 and CB2 agonists in combination, even with FAAH inhibitor
total white blood cells = settings: CXCR4 antagonist alone
Experimental: as §1

HSPCs [3] = settings: mice; cited from earlier work
FFAs = settings: infusion directly into the vasculature of the canine femur; cited from earlier work
free fatty acids = test: Free fatty acid assay in blood plasma; type: in vivo, mice; settings: pre-treatment 60 minutes prior to the b3 adrenergic agonist, 4 days
Experimental: as §1
Free fatty acid content in blood plasma was quantified using a serum/plasma fatty acid detection Kit (Zen Bio) and the assay was performed according to the manufacturers' instructions. Data are expressed as μM concentration of free fatty acids.

CXCL12 = settings: in vivo; cited from earlier work
[4] = vehicle pre-treated mice, hind limb infused with CXCR4 antagonist for 10 min
[5] = AMD3100 alone, 5 mg/kg i.p., blood 1 hour later
[6] = 3 days CB1 and CB2 agonists in combination, beta 3 agonist on the fourth day prior to CXCR4 antagonist
[7] = acute treatment (2 h), alone or in combination with acute CXCR4 antagonist
[8] = pre-treated once daily for 4 days, then AMD3100, blood 1 hour later
[9] = four day pretreatment, b3 adrenergic agonist in combination with FAAH inhibitor

COc1ccc2cc([C@H](C)C(=O)O)ccc2c1 [Naproxen]
effect on HSPC mobilization induced by 4 day beta 3 adrenergic agonist and CXCR4 antagonist (HSPCs [1]): significant increase in the mobilization of both HSPCs or CFU-Fs

c1cc(CN2CCCNCCNCCCNCC2)ccc1CN1CCCNCCNCCCNCC1 [AMD3100]
HPCs mobilized from the bone marrow (HPCs; [4]): HPCs but not MSCs were mobilized from the bone marrow
MSCs mobilized from the bone marrow (CFU-Fs (MSCs); [4]): HPCs but not MSCs were mobilized from the bone marrow
mobilisation of MSCs from the bone marrow into the blood (MSCs): not effective
circulating numbers of HSPCs (HSPCs [2]): stimulates a rapid rise in circulating numbers of HSPCs
CFU-Fs in blood (CFU-Fs (MSPCs); [5]): no colony forming units-fibroblasts (CFU-Fs; a measure of MSCs) were detectable
mobilization of HSPCs into the blood (HSPCs [1]; [5]): stimulated mobilization of HSPCs into the blood
mobilization of total white blood cells (total white blood cells): significantly increased
circulating numbers of HSPCs (HSPCs [3]): stimulates a rapid rise in circulating numbers of HSPCs

CCCCC/C=C\C/C=C\C/C=C\C/C=C\CCCC(=O)NCCCl [ACEA, Arachidonyl-2-chloroethylamide]
priming of MSCs for mobilization (CFU-Fs (MSPCs)): not sufficient to prime MSCs or HSPCs for mobilization
CFU-F mobilization (CFU-Fs (MSPCs); mouse, in vivo): stem cells were mobilized
level of CFU-F mobilization (CFU-Fs (MSPCs); mouse, in vivo): significantly less than that achieved using these agonists in combination
level of HSPC mobilization (HSPCs [1]): significantly less than that achieved using these agonists in combination
HSPC mobilization (HSPCs [1]; [6]): stem cells were mobilized
priming of HSPCs for mobilization (HSPCs [1]): not sufficient to prime MSCs or HSPCs for mobilization

Cc1c(C(=O)NN2CCCCC2)nn(-c2ccc(Cl)cc2Cl)c1-c1ccc(I)cc1 [AM251]
effect on HSPC mobilization induced by 4 day beta 3 adrenergic agonist and CXCR4 antagonist (HSPCs [1]): significantly suppressed

Cc1ccc2c(c1)Cc1c(C(=O)NN3CCCCC3)nn(-c3ccc(Cl)cc3Cl)c1-2 [GP1a, N-(Piperidin-1-yl)-1-(2,4-dichlorophenyl)-1,4-dihydro-6-methylindeno[1,2-c]pyrazole-3-carboxamide]
priming of MSCs for mobilization (CFU-Fs (MSPCs)): not sufficient to prime MSCs or HSPCs for mobilization
CFU-F mobilization (CFU-Fs (MSPCs); mouse, in vivo): stem cells were mobilized
level of CFU-F mobilization (CFU-Fs (MSPCs); mouse, in vivo): significantly less than that achieved using these agonists in combination
level of HSPC mobilization (HSPCs [1]): significantly less than that achieved using these agonists in combination
HSPC mobilization (HSPCs [1]; [6]): stem cells were mobilized
priming of HSPCs for mobilization (HSPCs [1]): not sufficient to prime MSCs or HSPCs for mobilization

CC(C)NCC(O)c1ccc(O)c(O)c1 (centres unmarked) [isoproterenol]
release of FFAs into the femoral vein (FFAs): release of FFAs into the femoral vein
circulating numbers of CFU-Fs (CFU-Fs (MSPCs); 4 day pre-treatment alone): did not change circulating numbers of HSPCs or CFU-Fs
CFU-Fs in the blood (CFU-Fs (MSPCs); [7]): did not result in detectable numbers of CFU-Fs in the blood
circulating CFU-Fs (CFU-Fs (MSPCs); [8]): CFU-Fs were mobilized
circulating numbers of HSPCs (HSPCs [1]; 4 day pre-treatment alone): did not change circulating numbers of HSPCs or CFU-Fs
mobilization of HSPCs (HSPCs [1]; [7]): did not enhance the mobilization of HSPCs above AMD3100 alone
circulating HSPC numbers (HSPCs [1]; [8]): significantly elevated over treatment with the CXCR4 antagonist alone

NC(=O)c1cccc(-c2cccc(OC(=O)NC3CCCCC3)c2)c1 [URB597]
HPC egress from the bone marrow in response to infusion of the CXCR4 antagonist (HPCs; [9]): significantly enhanced both HPC and MSC egress from the bone marrow
MSC egress from the bone marrow in response to infusion of the CXCR4 antagonist (CFU-Fs (MSCs); [9]): significantly enhanced both HPC and MSC egress from the bone marrow
effect on CFU-F mobilization induced by 4 day beta 3 adrenergic agonist and CXCR4 antagonist (CFU-Fs (MSPCs); mouse, in vivo): significantly enhanced
effect on HSPC mobilization induced by 4 day beta 3 adrenergic agonist and CXCR4 antagonist (HSPCs [1]): significantly enhanced

COc1ccc(C(=O)c2c(C)n(CCN3CCOCC3)c3cc(I)ccc23)cc1 [AM630]
effect on CFU-F mobilization induced by 4 day beta 3 adrenergic agonist and CXCR4 antagonist (CFU-Fs (MSPCs); mouse, in vivo): significantly suppressed
effect on HSPC mobilization induced by 4 day beta 3 adrenergic agonist and CXCR4 antagonist (HSPCs [1]): significantly suppressed

CC(C)(C)NCC(O)c1cc(Cl)c(N)c(Cl)c1 (centres unmarked) [Clenbuterol]
MSC mobilization (CFU-Fs (MSPCs); mouse, in vivo): did not stimulate HSPC or MSC mobilization
HSPC mobilization (HSPCs [1]; once daily for 4 days, alone or in combination with the CXCR4 antagonist): did not stimulate HSPC or MSC mobilization

CCCCCCCCCCC[C@@H](C[C@@H]1OC(=O)[C@H]1CCCCCC)OC(=O)[C@H](CC(C)C)NC=O [Orlistat]
effect on CFU-F mobilization induced by 4 day beta 3 adrenergic agonist and CXCR4 antagonist (CFU-Fs (MSPCs); inhibitor or antagonist given 60 minutes prior to BRL 37344, once daily for 4 days): completely abrogated
effect on HSPC mobilization induced by 4 day beta 3 adrenergic agonist and CXCR4 antagonist (HSPCs [1]): completely abrogated
effect on the b3 adrenergic agonist induced increase of FFA levels in plasma (free fatty acids): attenuated

B1: G-CSF: cytokine, granulocyte colony stimulating factor; murine G-CSF (PeproTech) (protein, UniProt P09920 31-208, looked up)
Granulocyte …: VPLVTVSALPPSLPLPRSFLLKSLEQVRKIQASGSVLLEQLCATYKLCHPEELVLLGHSLGIPKASLSGCSSQALQQTQCLSQLHSGLCLYQGLLQALSGISPALAPTLDLLQLDVANFATTIWQQMENLGVAPTVQPTQSAMPAFTSAFQRRAGGVLAISYLQGFLETARLALHHLA
mobilisation of MSCs from the bone marrow into the blood (MSCs): not effective
effect on β3-AR agonist/AMD3100 mobilisation of MSPCs (CFU-Fs (MSPCs); mouse, in vivo, ip): impairs
levels of CXCL12 in the bone marrow (CXCL12): reducing levels of CXCL12 in the bone marrow
G-CSF-induced mobilization of haematopoietic progenitor cells (HSPCs [1]; in the presence or absence of AM251 or AM630, 4 consecutive days): Independent of Cannabinoid Receptor Signalling
